This passage reports IC50 results from US20230339952A1, “MACROCYCLIC HETEROCYCLES AND USES THEREOF” (Kumquat Biosciences Inc., priority 2022, published 2023).

Like-named read-outs stand apart in the source and are kept apart here. Bounds are passed on as bounds.

For one assay, the target named is SOS1 (Homo sapiens (Human), UniProt Q07889). Nature of the assay: Ras-SOS interaction assay (HTRF), K-Ras G13D utilized. In kind it is binding. The conditions noted are these: K-Ras G13D. The source says: For example, the equilibrium interaction of human SOS1 (hSOS1) with human wildtype Kras or K-Ras mutant (e.g., hK-Ras G12C mutant, or hK-Ras G12C) can be assessed as a proxy or an indication for a subject compound's ability to inhibit SOS. Detection of such interaction is achieved by measuring homogenous time-resolved fluorescence resonance energy transfer (HTRF) from (i) a fluorescence resonance energy transfer (FRET) donor (e.g., antiGST-Europium) that is bound to GST-tagged K-Ras G12C to (ii) a FRET acceptor (e.g., anti-6His-XL665) bound to a His-tagged hSOS1.
Chain of SOS1 (Q07889 564-1049): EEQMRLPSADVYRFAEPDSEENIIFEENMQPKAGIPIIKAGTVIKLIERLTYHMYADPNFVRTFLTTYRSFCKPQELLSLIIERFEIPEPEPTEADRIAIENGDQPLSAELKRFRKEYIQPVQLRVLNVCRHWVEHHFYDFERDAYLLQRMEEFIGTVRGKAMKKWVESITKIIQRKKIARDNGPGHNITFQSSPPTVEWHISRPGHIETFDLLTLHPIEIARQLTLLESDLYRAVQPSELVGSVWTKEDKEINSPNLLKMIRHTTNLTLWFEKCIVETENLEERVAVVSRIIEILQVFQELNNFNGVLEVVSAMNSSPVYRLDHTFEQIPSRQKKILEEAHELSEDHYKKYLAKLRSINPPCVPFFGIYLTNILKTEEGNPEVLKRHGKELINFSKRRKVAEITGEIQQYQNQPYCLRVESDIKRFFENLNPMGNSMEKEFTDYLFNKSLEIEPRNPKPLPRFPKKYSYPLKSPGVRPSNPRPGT
A Ras working solution is prepared in assay buffer containing typically 10 nM of the protein construct (e.g., GST-tagged hK-Ras G12C) and 2 nM of the FRET donor (e.g., antiGST-Eu(K) from Cisbio, France). A SOS1 working solution is prepared in assay buffer containing typically 10 nM of the protein construct (e.g., His-hSOS1) and 10 nM of the FRET acceptor (e.g., anti-6His-XL665 from Cisbio, France). An inhibitor control solution is prepared in assay buffer containing 10 nM of the FRET acceptor without the SOS1 protein.
A fixed reaction mixture with or without test compound is transferred into a 384-well plate. Ras working solution is added to all wells of the test plate. SOS1 working solution is added to all wells except for those that are subsequently filled with the inhibitor control solution. […] The ratiometric data (i.e., emission 2 divided by emission 1) is used to calculate IC50 values against SOS1 using GraphPad Prism (GraphPad software).

The test system of assay [1] is NCI-H1975 (ATCC CRL-5908) cell line comprising an EGFR T790M L858R double mutation. The assay is described as follows: EGFR-SOS cellular inhibition assay (CellTiter-Glo cell proliferation). In kind it is cell-based. As to conditions: Homo sapiens, 120 h; NCI-H1975 cell proliferation, approximately 5 days; read-out: H1975 IC50. A general note: Cellular ATP, detected with luciferase, serves as a proxy for viable cell number.
Description: A CellTiter-Glo (CTG) luminescent based assay (Promega) is used to assess growth of the cells, as a measurement of the ability of the compounds herein to inhibit EGFR signaling in the cells. […] The day after plating, cells are treated with a dilution series (e.g., a 9 point 3-fold dilution series) of the compounds herein (e.g., approximately 125 μL final volume per well).

In general, IC50 refers to the concentration that inhibits the measured activity by half. In the case of `CC(C)N1CCC(c2cc3c4ncnc3n(c2=O)CCCCCCCN2CCC(CC2)C(F)(F)c2cccc(c2F)[C@@H](C)N4)CC1` [Compound 162, (4R)-3^2,2,2-trifluoro-6^6-(1-isopropylpiperidin-4-yl)-4-methyl-6^7,6^8-dihydro-5-aza-6(4,8)-pyrido[2,3-d]pyrimidina-1(4,1)-piperidina-3(1,3)-benzenacyclotridecaphan-6^7-one], the IC50 was < 0.1 µM on SOS1 (read-out: SOS1 IC50) and < 1 µM in assay [1].
As to `C[C@H]1Nc2ncnc3c2cc(N2CCN(S(C)(=O)=O)CC2)c(=O)n3CCCCCCCN2CCC(CC2)C(F)(F)c2cccc1c2F` [Compound 180, (4R)-3^2,2,2-trifluoro-4-methyl-6^6-(4-(methylsulfonyl)piperazin-1-yl)-6^7,6^8-dihydro-5-aza-6(4,8)-pyrido[2,3-d]pyrimidina-1(4,1)-piperidina-3(1,3)-benzenacyclotride-caphan-6^7-one], the 50% inhibitory concentration (IC50) was < 0.1 µM at SOS1 (read-out: SOS1 IC50) and < 1 µM in assay [1].
As for `C[C@H]1Nc2ncnc3c2cc(N2CCS(=O)(=O)CC2)c(=O)n3CCCCCCCN2CCC(CC2)C(F)(F)c2cccc1c2F` [Compound 38, (4R)-6^6-(1,1-dioxidothiomorpholino)-3^2,2,2-trifluoro-4-methyl-6^7,6^8-dihydro-5-aza-6(4,8)-pyrido[2,3-d]pyrimidina-1(4,1)-piperidina-3(1,3)-benzenacyclotridecaphan-6^7-one], the IC50 at SOS1 (read-out: SOS1 IC50) was < 0.1 µM; in assay [1], < 1 µM.
Turning to `C[C@H]1Nc2ncnc3c2cc(C2(C#N)CCS(=O)(=O)CC2)c(=O)n3CCCCCN2CCC(CC2)CCC(F)(F)c2cccc1c2` [Compound 8, 4-((3R)-5,5-difluoro-3-methyl-1^7-oxo-1^7,1^8-dihydro-2-aza-1(4,8)-pyrido[2,3-d]pyrimidina-8(4,1)-piperidina-4(1,3)-benzenacyclotridecaphane-1^6-yl)tetrahydro-2H-thiopyran-4-carbonitrile 1,1-dioxide], the IC50 at SOS1 (read-out: SOS1 IC50) is < 0.1 µM; in assay [1] it was < 1 µM.
The matching figures for `CC(C)N1CCC(c2cc3c4ncnc3n(c2=O)CCCCCCN2CCC(CC2)CC(F)(F)c2cccc(c2F)[C@@H](C)N4)CC1` [Compound 140, (3R)-4^2,5,5-trifluoro-1^6-(1-isopropylpiperidin-4-yl)-3-methyl-1^7,1^8-dihydro-2-aza-1(4,8)-pyrido[2,3-d]pyrimidina-7(4,1)-piperidina-4(1,3)-benzenacyclotridecaphan-1^7-one]: < 0.1 µM and < 1 µM.
Consider `CC(C)N1CCN(c2cc3c4ncnc3n(c2=O)CCCOCCCCN2CCC(CC2)C(F)(F)c2cccc(c2F)[C@@H](C)N4)CC1` [Compound 77, (4R)-3^2,2,2-trifluoro-6^6-(4-isopropylpiperazin-1-yl)-4-methyl-6^7,6^8-dihydro-10-oxa-5-aza-6(4,8)-pyrido[2,3-d]pyrimidina-1(4,1)-piperidina-3(1,3)-benzenacyclotetradecaphan-6^7-one], for which the results for the IC50 (at SOS1 (read-out: SOS1 IC50); in assay [1]) were < 0.1 µM and < 1 µM, respectively.
Consider `C[C@H]1Nc2ncnc3c2cc(C2CCS(=O)(=O)CC2)c(=O)n3CCCC(=O)NCCN2CCC(CC2)C(F)(F)c2cccc1c2` [Compound 30, (4R)-6^6-(1,1-dioxidotetrahydro-2H-thiopyran-4-yl)-2,2-difluoro-4-methyl-6^7,6^8-dihydro-5,11-diaza-6(4,8)-pyrido[2,3-d]pyrimidina-1(4,1)-piperidina-3(1,3)-benzenacyclotridecaphane-6^7,10-dione], for which the IC50 at SOS1 (read-out: SOS1 IC50) was < 0.1 µM; in assay [1], < 1 µM.
Take `COc1cc2nc(C)nc3c2cc1OCCOCCOCCOCCOCCNCc1ccc(F)cc1C1=CC=C(S1)C(C)N3` (centres unmarked) [Compound 138, 1^5-fluoro-5^7-methoxy-5^2,3-dimethyl-6,9,12,15,18-pentaoxa-4,21-diaza-5(4,6)-quinazolina-2(2,5)-thiophena-1(1,2)-benzenacyclodocosaphane]: the IC50 at SOS1 (read-out: IC50 value against SOS1) was < 0.05 µM; on SOS1 (read-out: SOS1 IC50), < 0.1 µM; in assay [1] it was < 1 µM.
As to `CC(C)N1CCN(c2cc3c4ncnc3n(c2=O)CCOCCCCN2CCC(CC2)CC(F)(F)c2cccc(c2F)[C@@H](C)N4)CC1` [Compound 135, (3R)-4^2,5,5-trifluoro-1^6-(4-isopropylpiperazin-1-yl)-3-methyl-1^7,1^8-dihydro-12-oxa-2-aza-1(4,8)-pyrido[2,3-d]pyrimidina-7(4,1)-piperidina-4(1,3)-benzenacyclotetradecaphan-1^7-one], the figures for the IC50 (at SOS1 (read-out: SOS1 IC50); in assay [1]) were < 0.1 µM and < 1 µM, respectively.
As to `C[C@H]1Nc2ncnc3c2cc(C2(C#N)CCS(=O)(=O)CC2)c(=O)n3CCCOCCCCN2CCC(CC2)C(F)(F)c2cccc1c2` [Compound 127, 4-((4R)-2,2-difluoro-4-methyl-6^7-oxo-6^7,6^8-dihydro-10-oxa-5-aza-6(4,8)-pyrido[2,3-d]pyrimidina-1(4,1)-piperidina-3(1,3)-benzenacyclotetradecaphane-6^6-yl)tetrahydro-2H-thiopyran-4-carbonitrile 1,1-dioxide], the values for the IC50 (at SOS1 (read-out: SOS1 IC50); in assay [1]) were < 0.1 µM and < 1 µM, respectively.
The corresponding values for `C[C@H]1Nc2ncnc3c2cc(C2CCS(=O)(=O)CC2)c(=O)n3CCCOCCCCN2CCC(CC2)C(F)(F)c2cccc1c2` [Compound 62, (4R)-66-(1,1-dioxidotetrahydro-2H-thiopyran-4-yl)-2,2-difluoro-4-methyl-67,68-dihydro-10-oxa-5-aza-6(4,8)-pyrido[2,3-d]pyrimidina-1(4,1)-piperidina-3(1,3)-benzenacyclotetradecaphan-67-one] are < 0.1 µM and < 1 µM.
Consider `C[C@H]1Nc2ncnc3c2cc(C2CCS(=O)(=O)CC2)c(=O)n3Cc2cn(nn2)CCCCN2CCC(CC2)C(F)(F)c2cccc1c2` [Compound 40, (5R,Z)-3^6-(1,1-dioxidotetrahydro-2H-thiopyran-4-yl)-7,7-difluoro-5-methyl-3^7,3^8-dihydro-1^1H-4-aza-3(8,4)-pyrido[2,3-d]pyrimidina-8(4,1)-piperidina-1(4,1)-triazola-6(1,3)-benzenacyclododecaphan-3^7-one], for which the IC50 at SOS1 (read-out: SOS1 IC50) was < 0.1 µM; in assay [1], < 1 µM.
`Cc1nc2c3cc(C4(C#N)CC4)c(=O)n(c3n1)CCCCCCCCCOCC(F)(F)c1cccc(c1F)[C@@H](C)N2` [Compound 133, 1-((3R)-4^2,5,5-trifluoro-1^2,3-dimethyl-1^7-oxo-1^7,1^8-dihydro-7-oxa-2-aza-1(4,8)-pyrido[2,3-d]pyrimidina-4(1,3)-benzenacyclohexadecaphane-1^6-yl)cyclopropane-1-carbonitrile]: the IC50 on SOS1 (read-out: SOS1 IC50) was 0.1 to 5 µM.
Consider `COc1cc2nc(C)nc3c2cc1OCCOCCOCCOCCOCCNC(=O)CCNCc1ccccc1C1=CC=C(S1)C(C)N3` (centres unmarked) [Compound 136, 5^7-methoxy-5^2,3-dimethyl-6,9,12,15,18-pentaoxa-4,21,25-triaza-5(4,6)-quinazolina-2(2,5)-thiophena-1(1,2)-benzenacyclohexacosaphan-22-one], for which the IC50 on SOS1 (read-out: SOS1 IC50) lay within 0.1 to 5 µM.
For `COc1cc2nc(C)nc3c2cc1OCCOCCOCCOCCOCCNC(=O)CCCCNCc1ccccc1C1=CC=C(S1)C(C)N3` (centres unmarked) [Compound 45, 5^7-methoxy-5^2,3-dimethyl-6,9,12,15,18-pentaoxa-4,21,27-triaza-5(4,6)-quinazolina-2(2,5)-thiophena-1(1,2)-benzenacyclooctacosaphan-22-one], the 50% inhibitory concentration (IC50) on SOS1 (read-out: SOS1 IC50) is < 0.1 µM.
Take `CC1CC/C=C\CCn2c(=O)c(C3(C#N)CC3)cc3c(ncnc32)N[C@H](C)c2cccc(c2)C(F)(F)C2CCN1CC2` (stereo partly drawn) [Compound 100, 1-((4R,Z)-2,2-difluoro-4,13-dimethyl-6^7-oxo-6^7,6^8-dihydro-5-aza-6(4,8)-pyrido[2,3-d]pyrimidina-1(4,1)-piperidina-3(1,3)-benzenacyclotridecaphan-9-en-6^6-yl)cyclopropane-1-carbonitrile]: the IC50 in assay [1] is < 1 µM.
`C[C@H]1Nc2nc(=O)n(c3c2cc(C2(C#N)CC2)c(=O)n3C)C/C=C\COCC(F)(F)c2cccc1c2F` [Compound 66, 1-((1^3E,3R,9Z)-4^2,5,5-trifluoro-1^8,3-dimethyl-1^2,1^7-dioxo-1^1,1^2,1^7,1^8-tetrahydro-7-oxa-2-aza-1(4,1)-pyrido[2,3-d]pyrimidina-4(1,3)-benzenacycloundecaphan-9-en-1^6-yl)cyclopropane-1-carbonitrile]: the IC50 at SOS1 (read-out: SOS1 IC50) lay within 0.1 to 5 µM.
As to `COc1cc2nc(C)nc3c2cc1OCCOCCOCCOCCOCCNCc1ccccc1-c1cccc(c1)C(C)N3` (centres unmarked) [Compound 99, 5^7-methoxy-5^2,3-dimethyl-6,9,12,15,18-pentaoxa-4,21-diaza-5(4,6)-quinazolina-1(1,2),2(1,3)-dibenzenacyclodocosaphane], the IC50 on SOS1 (read-out: SOS1 IC50) was 0.1 to 5 µM.
On to `Cc1nc2c3cc(C4(C#N)CC4)c(=O)n(c3n1)CCC/C=C\COCC(F)(F)c1cccc(c1F)[C@@H](C)N2` [Compound 1, 1-((3R,Z)-4^2,5,5-trifluoro-1^2,3-dimethyl-1^7-oxo-1^7,1^8-dihydro-7-oxa-2-aza-1(4,8)-pyrido[2,3-d]pyrimidina-4(1,3)-benzenacyclotridecaphan-9-en-16-yl)cyclopropane-1-carbonitrile], for which, on SOS1 (read-out: SOS1 IC50), the IC50 was 0.1 to 5 µM.
